Paper PMC5405701 (ChemMedChem, 2017)

Key:
ERβ = ERβ (Homo sapiens, UniProt Q92731); test: cell-based; format: cell-based
[1] = target: human ERβ ligand binding domain (LBD) (Homo sapiens, UniProt Q92731); test: competitive fluorometric; settings: ratio of RBA ERβ to RBA ERα
ERα = ERα (Homo sapiens, UniProt P03372); test: cell-based; format: cell-based
[2] = target: T1, human ERα ligand binding domain (LBD) (Homo sapiens, UniProt P03372); test: competitive fluorometric; settings: relative to parent 2a (compared to 2a and 4a)
T1 sequence (P03372 311-547 limits assumed): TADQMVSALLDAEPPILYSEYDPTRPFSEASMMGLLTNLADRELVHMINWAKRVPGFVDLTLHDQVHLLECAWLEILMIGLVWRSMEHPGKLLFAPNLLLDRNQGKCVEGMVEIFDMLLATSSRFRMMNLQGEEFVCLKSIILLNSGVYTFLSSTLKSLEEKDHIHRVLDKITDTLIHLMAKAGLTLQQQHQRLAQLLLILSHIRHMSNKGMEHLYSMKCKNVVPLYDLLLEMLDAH

[3] = test system: MCF-7 breast cancer cells; test: antiproliferative activity, MTT assay, MCF-7; settings: Homo sapiens, MCF7, 72 h, read-out: MCF-7 Inhibition (%)

Chain of ERβ (Q92731 whole entry, the tested form may be a part): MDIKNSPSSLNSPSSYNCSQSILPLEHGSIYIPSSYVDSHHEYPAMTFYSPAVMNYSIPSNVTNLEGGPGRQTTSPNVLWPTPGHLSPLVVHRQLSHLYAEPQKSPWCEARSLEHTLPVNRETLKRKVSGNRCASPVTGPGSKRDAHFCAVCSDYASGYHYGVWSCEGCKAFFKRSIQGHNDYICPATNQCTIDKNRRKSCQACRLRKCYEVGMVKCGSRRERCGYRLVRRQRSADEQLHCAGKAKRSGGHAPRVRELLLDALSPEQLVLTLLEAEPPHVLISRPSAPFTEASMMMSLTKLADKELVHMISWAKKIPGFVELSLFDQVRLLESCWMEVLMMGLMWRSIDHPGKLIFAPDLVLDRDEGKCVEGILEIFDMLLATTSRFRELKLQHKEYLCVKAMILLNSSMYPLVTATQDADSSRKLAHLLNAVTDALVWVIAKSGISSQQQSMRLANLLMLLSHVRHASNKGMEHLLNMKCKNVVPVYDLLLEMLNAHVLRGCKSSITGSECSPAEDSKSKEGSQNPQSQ
Chain of ERα (P03372 whole entry, the tested form may be a part): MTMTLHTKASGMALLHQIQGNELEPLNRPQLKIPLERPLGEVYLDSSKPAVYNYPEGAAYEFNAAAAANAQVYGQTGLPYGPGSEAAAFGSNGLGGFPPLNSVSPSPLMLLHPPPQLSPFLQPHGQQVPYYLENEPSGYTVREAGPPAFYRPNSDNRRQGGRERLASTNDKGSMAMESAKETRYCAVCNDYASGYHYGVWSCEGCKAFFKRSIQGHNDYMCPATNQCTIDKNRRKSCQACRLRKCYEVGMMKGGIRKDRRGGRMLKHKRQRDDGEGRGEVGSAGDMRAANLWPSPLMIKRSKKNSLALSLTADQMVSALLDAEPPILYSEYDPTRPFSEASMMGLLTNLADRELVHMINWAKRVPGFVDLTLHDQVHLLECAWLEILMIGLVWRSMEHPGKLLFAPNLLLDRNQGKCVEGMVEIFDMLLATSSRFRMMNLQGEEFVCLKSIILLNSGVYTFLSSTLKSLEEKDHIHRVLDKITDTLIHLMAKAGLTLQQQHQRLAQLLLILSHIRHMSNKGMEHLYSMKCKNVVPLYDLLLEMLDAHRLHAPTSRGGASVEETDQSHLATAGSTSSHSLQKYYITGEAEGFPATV
Chain of human ERβ ligand binding domain (LBD) (Q92731 264-498 limits assumed): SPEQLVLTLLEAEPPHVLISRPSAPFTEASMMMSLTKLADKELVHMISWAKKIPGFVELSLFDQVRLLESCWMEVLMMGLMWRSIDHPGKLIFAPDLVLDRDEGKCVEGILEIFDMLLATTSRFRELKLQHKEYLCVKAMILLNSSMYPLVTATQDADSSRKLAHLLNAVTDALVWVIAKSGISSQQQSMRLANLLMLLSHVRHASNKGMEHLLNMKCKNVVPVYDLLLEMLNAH

In the case of Cc1cc(O)ccc1-c1cc(Br)c(-c2ccc(O)cc2C)[se]1 [Compound 6b, 3-Bromo-2,5-bis(4-hydroxy-2-methylphenyl)selenophene], the EC50 (ERβ) is reported as 9 nM, the Emax (ERβ; HEK-293T, 24 h, read-out: Agonist Mode ERβ Eff (%E2)) is reported as 69 ± 9% and the “transcriptional activity profile on ERβ” value (ERβ; reporter gene assay, HEK293T) is reported as “antagonist”. The β/α [1] was 0.74, the EC50 (ERα) was 790 nM and the “Agonist Mode ERα Eff (%E2)” value (ERα; maximal response as percentage of response to 10^−8 M E2, HEK293T) was 21 ± 5 %E2. For the same compound, the “fold increase in binding affinity for ERα over 2a” value [2] was “more than 23 fold” and the inhibition at 10 µM [3] was 2.5%.
